Source: PubChem BioAssay (NCI)
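These data come from cells grown in 96-well plates and exposed to compound for 48 hours at five concentrations. TGI is the concentration that stops growth completely.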

Tests used:
Test in all cases: NCI tumour cell line growth inhibition, 48 h
SK-MEL-28 melanoma = system: SK-MEL-28 melanoma
SK-OV-3 ovarian = system: SK-OV-3 ovarian
PC-3 prostate = system: PC-3 prostate
NCI/ADR-RES ovarian = system: NCI/ADR-RES ovarian
CAKI-1 renal = system: CAKI-1 renal
OVCAR-4 ovarian = system: OVCAR-4 ovarian
DU-145 prostate = system: DU-145 prostate
EKVX NSCLC = system: EKVX NSCLC
RXF 393 renal = system: RXF 393 renal
M14 melanoma = system: M14 melanoma
MALME-3M melanoma = system: MALME-3M melanoma
HT29 colon = system: HT29 colon
IGROV1 ovarian = system: IGROV1 ovarian
NCI-H460 lung = system: NCI-H460 lung
OVCAR-5 ovarian = system: OVCAR-5 ovarian
A498 renal = system: A498 renal
SR leukemia = system: SR leukemia
OVCAR-3 ovarian = system: OVCAR-3 ovarian
SW-620 colon = system: SW-620 colon
OVCAR-8 ovarian = system: OVCAR-8 ovarian

Compound | TGI (SK-MEL-28 melanoma) [µM] | TGI (SK-OV-3 ovarian) [µM] | TGI (PC-3 prostate) [µM] | TGI (NCI/ADR-RES ovarian) [µM] | TGI (CAKI-1 renal) [µM] | TGI (OVCAR-4 ovarian) [µM] | TGI (DU-145 prostate) [µM] | TGI (EKVX NSCLC) [µM] | TGI (RXF 393 renal) [µM] | TGI (M14 melanoma) [µM] | TGI (MALME-3M melanoma) [µM] | TGI (HT29 colon) [µM] | TGI (IGROV1 ovarian) [µM] | TGI (NCI-H460 lung) [µM] | TGI (OVCAR-5 ovarian) [µM] | TGI (A498 renal) [µM] | TGI (SR leukemia) [µM] | TGI (OVCAR-3 ovarian) [µM] | TGI (SW-620 colon) [µM] | TGI (OVCAR-8 ovarian) [µM]
CCCN(CCCCC(NC(C)=O)C(=O)NCc1ccccc1)C(=O)N(CCCl)N=O (stereo not drawn) | > 100 | > 100 | > 100 | > 100 | > 100 | > 100 | > 100 | > 100 | 98.9 | > 100 | > 100 | > 100 | > 100 | > 56.2 | > 100 | > 100 | > 100 | > 100 | > 100 | > 100
Brc1ccc2c(-c3nc(-c4c[nH]c5ccc(Br)cc45)cs3)c[nH]c2c1 | 28.7 | 29.4 | 17.9 | 18.1 | 14.5 | 24.3 | 19.1 | 6.98 | 12.4 | 13.8 | 19.4 | 3.61 | 16.9 | 8.36 | 10.4 | 11.8 | 13 | 28 | 24.4 | 25.3
Nc1nc(Cl)cc(NCC2(CO)CC(OCc3ccccc3)C2)n1 (stereo not drawn) | > 100 | > 100 | > 100 | > 100 | > 100 | > 100 | > 100 | > 100 | > 100 | – | > 100 | > 100 | > 100 | > 100 | > 100 | 86.5 | > 100 | > 100 | > 100 | > 100
CCC1c2[nH]c3ccccc3c2C[C@H]2C(=O)NC(CCC(=O)OC(C)(C)C)C(=O)N12 (stereo partly drawn) | > 100 | > 100 | > 100 | > 100 | > 100 | > 100 | > 100 | > 100 | > 100 | > 100 | > 100 | > 100 | > 100 | – | > 100 | > 100 | > 100 | > 100 | > 100 | > 100
NC(N)=N/N=C/c1c(Cl)nc2sccn12 | > 100 | > 100 | > 100 | > 100 | > 100 | 46.4 | > 100 | > 100 | 65.1 | 34.5 | 50.3 | 31.6 | > 100 | 30.3 | 80.9 | > 100 | 54 | 90.9 | 41.1 | > 100
CCOC(=O)/C(O)=C(/C=NC(=S)c1ccncc1)C(=O)OCC | > 100 | > 100 | > 100 | > 100 | > 100 | > 100 | > 100 | > 100 | > 100 | > 100 | > 100 | > 100 | > 100 | > 100 | > 100 | > 100 | > 100 | > 28.8 | > 100 | > 100
O=C(Nc1ccc2nc(-c3ccccc3)cn2c1)Oc1ccccc1 | > 100 | > 100 | > 100 | > 100 | > 100 | > 100 | > 100 | > 100 | 7.31 | > 100 | > 100 | > 100 | > 100 | > 100 | > 100 | > 100 | > 100 | > 100 | > 100 | > 100
CC1=C2C3=C(C)C(=O)C(C)(C)CC[C@@]3(C)[C@]2(C)CCC(C)(C)C1=O | – | > 100 | > 100 | > 100 | > 100 | > 100 | > 100 | > 100 | > 100 | > 100 | > 100 | > 100 | > 100 | – | > 100 | > 100 | > 100 | > 100 | > 100 | > 100
CSc1ccc(C2C(Cl)C(=O)N2NC(=O)c2c(Cl)c(Cl)c(Cl)c(Cl)c2-c2nc3ccccc3[nH]2)cc1 (stereo not drawn) | 44.4 | 93.4 | 45.8 | > 100 | 42.8 | – | 31.3 | 37.9 | 5.01 | 56.7 | 39.5 | > 100 | 2.14 | – | 53.4 | 72.1 | > 100 | 50.7 | > 100 | 59.9
Nc1nc(Cl)cc(NCC2(CO)COC2)n1 | > 100 | > 100 | > 100 | > 100 | > 100 | > 100 | > 100 | > 100 | > 100 | – | > 100 | > 100 | > 100 | > 100 | > 100 | > 100 | > 100 | > 100 | > 100 | > 100
CNC(=O)N1CCN(C(=O)NC)CCN(C(=O)NC)CC1 | > 100 | > 100 | > 100 | > 100 | – | – | > 100 | > 100 | > 100 | > 100 | > 100 | > 100 | > 100 | > 100 | > 100 | > 100 | > 100 | – | > 100 | > 100
O=C(CCc1ccc(O)cc1)NCCc1ccc(O)cc1 | > 100 | > 100 | > 100 | > 100 | > 100 | > 100 | > 100 | > 100 | > 100 | > 100 | > 100 | > 100 | > 100 | > 100 | > 100 | > 100 | > 100 | > 100 | – | > 100
O=c1[nH]nc(-c2cccc(Br)c2)[nH]1 | > 100 | – | > 100 | > 100 | > 100 | > 100 | > 100 | 79.1 | > 100 | > 100 | > 100 | > 100 | > 100 | > 100 | > 100 | > 100 | > 100 | > 100 | > 100 | > 100
